# Data reported in article PMC5397484, “Gel-Based Purification and Biochemical Study of Laccase Isozymes from Ganoderma sp. and Its Role in Enhanced Cotton Callogenesis” (Frontiers in Microbiology, 2017).
# Read-outs that look alike come from different tables or passages of the source.
# Assays:
# Experiment in all cases: absorbance […] nm, Eadie-Hofstee plot
# Type in all cases: biochemical, Ganoderma lucidum
# [1] = system: T1, Glac L4; settings: 0.1 M sodium acetate pH 5.0 (methods; table title says optimal pH); 0.02-0.5 mM substrate; read-out: ABTS / Km
# T1 construct: gene GL16398; native secreted isozyme, copper-induced culture, native-PAGE purified; 40-66 kDa range for all isozymes, described as multimeric; gene not assigned (GL tags are of another genome strain)
# [2] = system: T2, Glac L2; settings: 0.1 M sodium acetate pH 5.0 (methods; table title says optimal pH); 0.02-0.5 mM substrate; read-out: ABTS / Km
# T2 construct: gene GL16398; native secreted isozyme, copper-induced culture, native-PAGE purified; 40-66 kDa range for all isozymes, described as multimeric; gene not assigned (GL tags are of another genome strain)
# [3] = system: T3, Glac L3; settings: 0.1 M sodium acetate pH 5.0 (methods; table title says optimal pH); 0.02-0.5 mM substrate; read-out: ABTS / Km
# T3 construct: gene GL16398; native secreted isozyme, copper-induced culture, native-PAGE purified; 40-66 kDa range for all isozymes, described as multimeric; gene not assigned (GL tags are of another genome strain)
# [4] = system: T4, Glac L5; settings: 0.1 M sodium acetate pH 5.0 (methods; table title says optimal pH); 0.02-0.5 mM substrate; read-out: ABTS / Km
# T4 construct: gene GL16398; native secreted isozyme, copper-induced culture, native-PAGE purified; 40-66 kDa range for all isozymes, described as multimeric; gene not assigned (GL tags are of another genome strain)
# [5] = system: T3, Glac L3; settings: citrate-phosphate pH 4.0 (methods; table title says optimal pH); 0.1-0.8 mM substrate; read-out: O-tolidine / Km
# [6] = system: T4, Glac L5; settings: citrate-phosphate pH 4.0 (methods; table title says optimal pH); 0.1-0.8 mM substrate; read-out: O-tolidine / Km
# [7] = system: T1, Glac L4; settings: citrate-phosphate pH 4.0 (methods; table title says optimal pH); 0.1-0.8 mM substrate; read-out: O-tolidine / Km
# [8] = system: T2, Glac L2; settings: citrate-phosphate pH 4.0 (methods; table title says optimal pH); 0.1-0.8 mM substrate; read-out: O-tolidine / Km
# [9] = system: T3, Glac L3; settings: citrate-phosphate pH 4.0 (methods; table title says optimal pH); 0.5-3.0 mM substrate; read-out: Guaiacol / Km
# [10] = system: T4, Glac L5; settings: citrate-phosphate pH 4.0 (methods; table title says optimal pH); 0.5-3.0 mM substrate; read-out: Guaiacol / Km
# [11] = system: T2, Glac L2; settings: citrate-phosphate pH 4.0 (methods; table title says optimal pH); 0.5-3.0 mM substrate; read-out: Guaiacol / Km
# [12] = system: T1, Glac L4; settings: citrate-phosphate pH 4.0 (methods; table title says optimal pH); 0.5-3.0 mM substrate; read-out: Guaiacol / Km
structure (smiles),measurement,setting,value
"CCn1c(=NN=c2sc3cc(S(=O)(=O)O)ccc3n2CC)sc2cc(S(=O)(=O)O)ccc21 [ABTS, 2,2′-azino-bis(3-ethylbenzothiazoline-6-sulfonic acid)]",Km,[1],50 µM
same,Km,[2],83 µM
same,Km,[3],81 µM
same,Km,[4],15 µM
Cc1cc(-c2ccc(N)c(C)c2)ccc1N [O-tolidine],Km,[5],507 µM
same,Km,[6],78 µM
same,Km,[7],365 µM
same,Km,[8],724 µM
COc1ccccc1O [guaiacol],Km,[9],80 µM
same,Km,[10],126 µM
same,Km,[11],115 µM
same,Km,[12],96 µM
